Paper PMC11864180, “Dimeric assembly of F1-like ATPase for the gliding motility of Mycoplasma” (Science Advances, 2025)

Target: T1, G1-ATPase (dimeric F1-like ATPase, twin motor; type 2 ATPase) ([Mycoplasma] mobile, UniProt Q6KIC3+Q6KIC4)
T1 construct: gene atpA; native twin motor isolated from M. mobile cells; two alpha3beta3gamma units with GliD, GliE and PGK; PGK CTD only partly modelled; strain mutation lies in gli521, outside the complex; with F1-like ATPase gamma subunit (G1-gamma); GliD (bridge subunit of G1-ATPase); GliE (G1-ATPase subunit, 112 amino acids); Phosphoglycerate kinase
Test: cryo-EM structure of the complex ([…] Å; local […] Å)
Assay type: binding
Settings: Mg2+, endogenous nucleotide, isolated without added nucleotide, PBS pH 7.3, 1 mM MgCl2

| SMILES | cryo-EM structure of the complex (3.2 Å; local 3.1 Å) (catalytic site of alphaHO-betaHO, together with Pi) | cryo-EM structure of the complex (3.2 Å; local 3.1 Å) (catalytic site of alphaC-betaC and the three noncatalytic beta-alpha interfaces) |
| --- | --- | --- |
| Nc1ncnc2c1ncn2[C@@H]1O[C@H](COP(=O)(O)OP(=O)(O)O)[C@@H](O)[C@H]1O [Mg-ADP] | αCβC and αHOβHO contained Mg-ATP and Mg-ADP + Pi, respectively |  |
| Nc1ncnc2c1ncn2[C@@H]1O[C@H](COP(=O)(O)OP(=O)(O)OP(=O)(O)O)[C@@H](O)[C@H]1O [Mg-ATP] |  | Mg-ATP was observed at the remaining three interfaces, hereafter referred to as the β-α interfaces |
